Assay results from ChEMBL document CHEMBL3044996, “Diatomaceous earths enhance the insecticidal effect of bitterbarkomycin against stored-grain insects” (2009).
Active and inactive are the calls of the source. The rule behind the calls is not given here.

Assays:
Cryptolestes ferrugineus [1] = assay: Reduction of progeny production in adult Cryptolestes ferrugineus (rusty grain beetle) at 0.0875 to 0.0375 to ppm exposed on wheat; format: functional, organism-based
Tribolium castaneum [2] = assay: Reduction of progeny production in adult Tribolium castaneum (red flour beetle) at 0.0875 to 0.0375 to ppm exposed on wheat; format: functional, organism-based
Sitophilus zeamais [3] = assay: Reduction of progeny production in adult Sitophilus zeamais at 0.0875 to 0.0375 to ppm exposed on wheat; format: functional, organism-based
Cryptolestes ferrugineus [4] = assay: Insecticidal activity against adult Cryptolestes ferrugineus (rusty grain beetle) assessed as mortality at 0.0875 ppm exposed for 14 days on wheat; format: functional; details: 336 h
Cryptolestes ferrugineus [5] = assay: Insecticidal activity against adult Cryptolestes ferrugineus (rusty grain beetle) assessed as mortality at 0.075 ppm exposed for 14 days on wheat; format: functional; details: 336 h
Cryptolestes ferrugineus [6] = assay: Insecticidal activity against adult Cryptolestes ferrugineus (rusty grain beetle) assessed as mortality at 0.0625 ppm exposed for 14 days on wheat; format: functional; details: 336 h
Cryptolestes ferrugineus [7] = assay: Insecticidal activity against adult Cryptolestes ferrugineus (rusty grain beetle) assessed as mortality at 0.05 ppm exposed for 14 days on wheat; format: functional; details: 336 h
Cryptolestes ferrugineus [8] = assay: Insecticidal activity against adult Cryptolestes ferrugineus (rusty grain beetle) assessed as mortality at 0.0375 ppm exposed for 14 days on wheat; format: functional; details: 336 h
Cryptolestes ferrugineus [9] = assay: Insecticidal activity against adult Cryptolestes ferrugineus (rusty grain beetle) assessed as mortality at 0.0875 ppm exposed for 7 days on wheat; format: functional; details: 168 h
Tribolium castaneum [10] = assay: Insecticidal activity against adult Tribolium castaneum (red flour beetle) assessed as mortality at 0.0875 ppm exposed for 7 days on wheat; format: functional
Tribolium castaneum [11] = assay: Insecticidal activity against adult Tribolium castaneum (red flour beetle) assessed as mortality at 0.0375 ppm exposed for 14 days on wheat; format: functional
Tribolium castaneum [12] = assay: Insecticidal activity against adult Tribolium castaneum (red flour beetle) assessed as mortality at 0.05 ppm exposed for 14 days on wheat; format: functional
Tribolium castaneum [13] = assay: Insecticidal activity against adult Tribolium castaneum (red flour beetle) assessed as mortality at 0.0625 ppm exposed for 14 days on wheat; format: functional
Sitophilus zeamais [14] = assay: Insecticidal activity against adult Sitophilus zeamais assessed as mortality at 0.05 ppm exposed for 7 days on wheat; format: functional
Sitophilus zeamais [15] = assay: Insecticidal activity against adult Sitophilus zeamais assessed as mortality at 0.0625 ppm exposed for 7 days on wheat; format: functional
Sitophilus zeamais [16] = assay: Insecticidal activity against adult Sitophilus zeamais assessed as mortality at 0.075 ppm exposed for 7 days on wheat; format: functional
Sitophilus zeamais [17] = assay: Insecticidal activity against adult Sitophilus zeamais assessed as mortality at 0.0875 ppm exposed for 7 days on wheat; format: functional
Sitophilus zeamais [18] = assay: Insecticidal activity against adult Sitophilus zeamais assessed as mortality at 0.0375 ppm exposed for 14 days on wheat; format: functional
Sitophilus zeamais [19] = assay: Insecticidal activity against adult Sitophilus zeamais assessed as mortality at 0.05 ppm exposed for 14 days on wheat; format: functional
Sitophilus zeamais [20] = assay: Insecticidal activity against adult Sitophilus zeamais assessed as mortality at 0.0625 ppm exposed for 14 days on wheat; format: functional
Sitophilus zeamais [21] = assay: Insecticidal activity against adult Sitophilus zeamais assessed as mortality at 0.075 ppm exposed for 14 days on wheat; format: functional
Sitophilus zeamais [22] = assay: Insecticidal activity against adult Sitophilus zeamais assessed as mortality at 0.0875 ppm exposed for 14 days on wheat; format: functional
Tribolium castaneum [23] = assay: Insecticidal activity against adult Tribolium castaneum (red flour beetle) assessed as mortality at 0.0375 ppm exposed for 5 days on wheat; format: functional
Tribolium castaneum [24] = assay: Insecticidal activity against adult Tribolium castaneum (red flour beetle) assessed as mortality at 0.05 ppm exposed for 5 days on wheat; format: functional
Tribolium castaneum [25] = assay: Insecticidal activity against adult Tribolium castaneum (red flour beetle) assessed as mortality at 0.0625 ppm exposed for 5 days on wheat; format: functional
Tribolium castaneum [26] = assay: Insecticidal activity against adult Tribolium castaneum (red flour beetle) assessed as mortality at 0.075 ppm exposed for 5 days on wheat; format: functional
Tribolium castaneum [27] = assay: Insecticidal activity against adult Tribolium castaneum (red flour beetle) assessed as mortality at 0.0875 ppm exposed for 5 days on wheat; format: functional
Tribolium castaneum [28] = assay: Insecticidal activity against adult Tribolium castaneum (red flour beetle) assessed as mortality at 0.0375 ppm exposed for 7 days on wheat; format: functional
Tribolium castaneum [29] = assay: Insecticidal activity against adult Tribolium castaneum (red flour beetle) assessed as mortality at 0.05 ppm exposed for 7 days on wheat; format: functional
Tribolium castaneum [30] = assay: Insecticidal activity against adult Tribolium castaneum (red flour beetle) assessed as mortality at 0.0625 ppm exposed for 7 days on wheat; format: functional
Tribolium castaneum [31] = assay: Insecticidal activity against adult Tribolium castaneum (red flour beetle) assessed as mortality at 0.075 ppm exposed for 7 days on wheat; format: functional
Tribolium castaneum [32] = assay: Insecticidal activity against adult Tribolium castaneum (red flour beetle) assessed as mortality at 0.075 ppm exposed for 14 days on wheat; format: functional
Tribolium castaneum [33] = assay: Insecticidal activity against adult Tribolium castaneum (red flour beetle) assessed as mortality at 0.0875 ppm exposed for 14 days on wheat; format: functional
Cryptolestes ferrugineus [34] = assay: Insecticidal activity against adult Cryptolestes ferrugineus (rusty grain beetle) assessed as mortality at 0.0375 ppm exposed for 5 days on wheat; format: functional; details: 120 h
Cryptolestes ferrugineus [35] = assay: Insecticidal activity against adult Cryptolestes ferrugineus (rusty grain beetle) assessed as mortality at 0.05 ppm exposed for 5 days on wheat; format: functional; details: 120 h
Cryptolestes ferrugineus [36] = assay: Insecticidal activity against adult Cryptolestes ferrugineus (rusty grain beetle) assessed as mortality at 0.0625 ppm exposed for 5 days on wheat; format: functional; details: 120 h
Cryptolestes ferrugineus [37] = assay: Insecticidal activity against adult Cryptolestes ferrugineus (rusty grain beetle) assessed as mortality at 0.075 ppm exposed for 5 days on wheat; format: functional; details: 120 h
Cryptolestes ferrugineus [38] = assay: Insecticidal activity against adult Cryptolestes ferrugineus (rusty grain beetle) assessed as mortality at 0.0875 ppm exposed for 5 days on wheat; format: functional; details: 120 h
Cryptolestes ferrugineus [39] = assay: Insecticidal activity against adult Cryptolestes ferrugineus (rusty grain beetle) assessed as mortality at 0.075 ppm exposed for 7 days on wheat; format: functional; details: 168 h
Cryptolestes ferrugineus [40] = assay: Insecticidal activity against adult Cryptolestes ferrugineus (rusty grain beetle) assessed as mortality at 0.0625 ppm exposed for 7 days on wheat; format: functional; details: 168 h
Cryptolestes ferrugineus [41] = assay: Insecticidal activity against adult Cryptolestes ferrugineus (rusty grain beetle) assessed as mortality at 0.05 ppm exposed for 7 days on wheat; format: functional; details: 168 h
Cryptolestes ferrugineus [42] = assay: Insecticidal activity against adult Cryptolestes ferrugineus (rusty grain beetle) assessed as mortality at 0.0375 ppm exposed for 7 days on wheat; format: functional; details: 168 h
Sitophilus zeamais [43] = assay: Insecticidal activity against adult Sitophilus zeamais assessed as mortality at 0.075 ppm exposed for 5 days on wheat; format: functional
Sitophilus zeamais [44] = assay: Insecticidal activity against adult Sitophilus zeamais assessed as mortality at 0.0625 ppm exposed for 5 days on wheat; format: functional
Sitophilus zeamais [45] = assay: Insecticidal activity against adult Sitophilus zeamais assessed as mortality at 0.05 ppm exposed for 5 days on wheat; format: functional
Sitophilus zeamais [46] = assay: Insecticidal activity against adult Sitophilus zeamais assessed as mortality at 0.0375 ppm exposed for 5 days on wheat; format: functional
Sitophilus zeamais [47] = assay: Insecticidal activity against adult Sitophilus zeamais assessed as mortality at 0.0875 ppm exposed for 5 days on wheat; format: functional
Sitophilus zeamais [48] = assay: Insecticidal activity against adult Sitophilus zeamais assessed as mortality at 0.0375 ppm exposed for 7 days on wheat; format: functional

CC(=O)O[C@H]1C[C@](C)(O)[C@]23OC(C)(C)[C@H]([C@H](OCC(C)C)[C@@H](OCc4ccccc4)[C@]2(COCC(C)C)[C@H]1OC(C)=O)[C@H]3O [BITTERBARKOMYCIN]
Activity (Cryptolestes ferrugineus [1]): Active
Activity (Tribolium castaneum [2]): Active
Activity (Sitophilus zeamais [3]): Active
mortality at 0.0875 ppm (Cryptolestes ferrugineus [4]): 100%
mortality at 0.075 ppm (Cryptolestes ferrugineus [5]): 100%
mortality at 0.0625 ppm (Cryptolestes ferrugineus [6]): 90.3%
mortality at 0.05 ppm (Cryptolestes ferrugineus [7]): 86.7%
mortality at 0.0375 ppm (Cryptolestes ferrugineus [8]): 83.8%
mortality at 0.0875 ppm (Cryptolestes ferrugineus [9]): 100%
Activity (Tribolium castaneum [10]): 68%
Activity (Tribolium castaneum [11]): 66%
Activity (Tribolium castaneum [12]): 86%
Activity (Tribolium castaneum [13]): 95.8%
Activity (Sitophilus zeamais [14]): 65.1%
Activity (Sitophilus zeamais [15]): 72.2%
Activity (Sitophilus zeamais [16]): 86%
Activity (Sitophilus zeamais [17]): 90.4%
Activity (Sitophilus zeamais [18]): 64.4%
Activity (Sitophilus zeamais [19]): 73.8%
Activity (Sitophilus zeamais [20]): 83.1%
Activity (Sitophilus zeamais [21]): 92.9%
Activity (Sitophilus zeamais [22]): 98.2%
Activity (Tribolium castaneum [23]): 19.6%
Activity (Tribolium castaneum [24]): 21.8%
Activity (Tribolium castaneum [25]): 23.3%
Activity (Tribolium castaneum [26]): 33.6%
Activity (Tribolium castaneum [27]): 50%
Activity (Tribolium castaneum [28]): 48.2%
Activity (Tribolium castaneum [29]): 56.2%
Activity (Tribolium castaneum [30]): 60.4%
Activity (Tribolium castaneum [31]): 63.1%
Activity (Tribolium castaneum [32]): 99.6%
Activity (Tribolium castaneum [33]): 100%
mortality at 0.0375 ppm (Cryptolestes ferrugineus [34]): 44.7%
mortality at 0.05 ppm (Cryptolestes ferrugineus [35]): 47.6%
mortality at 0.0625 ppm (Cryptolestes ferrugineus [36]): 53.1%
mortality at 0.075 ppm (Cryptolestes ferrugineus [37]): 88.4%
mortality at 0.0875 ppm (Cryptolestes ferrugineus [38]): 92.9%
mortality at 0.075 ppm (Cryptolestes ferrugineus [39]): 98.2%
mortality at 0.0625 ppm (Cryptolestes ferrugineus [40]): 76.1%
mortality at 0.05 ppm (Cryptolestes ferrugineus [41]): 70.7%
mortality at 0.0375 ppm (Cryptolestes ferrugineus [42]): 64%
Activity (Sitophilus zeamais [43]): 80.2%
Activity (Sitophilus zeamais [44]): 68.4%
Activity (Sitophilus zeamais [45]): 59.1%
Activity (Sitophilus zeamais [46]): 39.8%
Activity (Sitophilus zeamais [47]): 85.3%
Activity (Sitophilus zeamais [48]): 52.4%
